Reference: US11884647B2, “Compounds and methods for targeting pathogenic blood vessels” (THE REGENTS OF THE UNIVERSITY OF CALIFORNIA, priority 2019, dated 2024)

Columns and labels:
[1] = tested on: tumor endothelial cells (CT26.CL25 colon cancer tumor); assay: Colon CT26 ex vivo model of tumor angiogenesis; assay type: cell-based; settings: Mus musculus, CT26, 48 h, read-out: Cell death
How it was run: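 Explant pieces of CT26 tumor (about 0.075 mm^3) were embedded in Matrigel and grown in endothelial growth medium at 37 °C for about 7 days until endothelial outgrowth appeared, then treated. Cell death was read about 48 h after drug addition by fluorescein diacetate (live) and propidium iodide (dead) staining with red/green imaging.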

[2] = tested on: tumor endothelial cells (LL/2 lung cancer tumor); assay: Lung LL2 ex vivo model of tumor angiogenesis; assay type: cell-based, mouse; settings: for cytotoxicity at 40 µM / cytotoxicity at 20 µM: Mus musculus, Endothelial cell, 48 h, read-out: Cell death
How it was run: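 Read-out is live/dead fluorescence imaging (fluorescein diacetate green, propidium iodide red, 10 min at 37° C) at 2×, taken e.g. 48 h after drug addition. Fragments of mouse LL2 tumor are cultured in Matrigel with endothelial growth medium, usually 4 days, until new endothelial cells grow out, then treated.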

| SMILES | cytotoxicity at 40 µM [1] [%] | cytotoxicity at 40 µM [2] [%] | further results |
| --- | --- | --- | --- |
| COc1ccc(S(=O)(=O)c2cnc3ccc(OC(F)(F)F)cc3c2N2CCC(O)CC2)cc1OC [compound 58, 1-(3-((3,4-dimethoxyphenyl)sulfonyl)-6-(trifluoromethoxy)quinolin-4-yl)piperidin-4-ol] | 50 | 50 |  |
| COc1ccc(S(=O)(=O)c2cnc3ccc(OC(F)(F)F)cc3c2N(CCO)CCO)cc1OC [compound 72, 2,2′-((3-((3,4-dimethoxyphenyl)sulfonyl)-6-(trifluoromethoxy)quinolin-4-yl)azanediyl)bis(ethan-1-ol)] | 0 | 20 |  |
| CCOC(=O)c1ccc2ncc(S(=O)(=O)c3ccc(CC)cc3)c(N3CCC(N4CCCCC4)CC3)c2c1 [compound 64, ethyl 4-([1,4′-bipiperidin]-1′-yl)-3-((4-ethylphenyl)sulfonyl)quinoline-6-carboxylate] | 100 | 100 |  |
| CCc1ccc(S(=O)(=O)c2cnc3ccc(OC(F)(F)F)cc3c2N2CCC3(CC2)OCCO3)cc1 [compound 52, 8-(3-((4-ethylphenyl)sulfonyl)-6-(trifluoromethoxy)quinolin-4-yl)-1,4-dioxa-8-azaspiro[4.5]decane] | 0 | 50 |  |
| COc1ccc(S(=O)(=O)c2cnc3ccc(OC(F)(F)F)cc3c2-n2cncn2)cc1OC [compound 89, 3-((3,4-dimethoxyphenyl)sulfonyl)-4-(1H-1,2,4-triazol-1-yl)-6-(trifluoromethoxy)quinoline] |  |  | cytotoxicity at 10 µM [1]: 100%; cytotoxicity at 20 µM [2]: 100% |
| CCc1ccc(S(=O)(=O)c2cnc3ccc(OC(F)(F)F)cc3c2-n2cnc(C)c2)cc1 [compound 117, 3-((4-ethylphenyl)sulfonyl)-4-(4-methyl-1H-imidazol-1-yl)-6-(trifluoromethoxy)quinoline] |  |  | cytotoxicity at 20 µM [1]: 100%; cytotoxicity at 20 µM [2]: 100% |
| CCCCCCCOc1ccc(S(=O)(=O)c2cnc3ccc([S+](C)[O-])cc3c2N2CCC(N3CCC(N4CCCCC4)CC3)CC2)cc1 (stereo not drawn) [compound 258, 4-([1,4′:1′,4″-terpiperidin]-1″-yl)-3-((4-(heptyloxy)phenyl)sulfonyl)-6-(methylsulfinyl)quinoline] |  |  | cytotoxicity at 10 µM [1]: 100%; cytotoxicity at 20 µM [2]: 100% |
| CCc1ccc(S(=O)(=O)c2cnc3ccc(OC(F)(F)F)cc3c2N(CC)CC)cc1 [compound 81, N,N-diethyl-3-((4-ethylphenyl)sulfonyl)-6-(trifluoromethoxy)quinolin-4-amine] | 0 | 0 |  |
| CCCCOc1ccc(S(=O)(=O)c2cnc3ccc([S+](C)[O-])cc3c2N2CCC(N3CCCN(C)CC3)CC2)cc1 (stereo not drawn) [compound 241, 3-((4-butoxyphenyl)sulfonyl)-4-(4-(4-methyl-1,4-diazepan-1-yl)piperidin-1-yl)-6-(methylsulfinyl)quinoline] |  | 40 | cytotoxicity at 10 µM [1]: 0% |
| COc1ccc(S(=O)(=O)c2cnc3ccc(OC(F)(F)F)cc3c2N2CCCC(O)C2)cc1OC (stereo not drawn) [compound 70, 1-(3-((3,4-dimethoxyphenyl)sulfonyl)-6-(trifluoromethoxy)quinolin-4-yl)piperidin-3-ol] | 10 | 40 |  |
| COc1ccc(S(=O)(=O)c2cnc3ccc(SC)cc3c2N2CCC(N3CCCCC3)CC2)cc1OC [compound 121, 4-([1,4′-bipiperidin]-1′-yl)-3-((3,4-dimethoxyphenyl)sulfonyl)-6-(methylthio)quinoline] | 40 | 50 |  |
| CCc1ccc(S(=O)(=O)c2cnc3ccc([N+](=O)[O-])cc3c2N2CCC(N3CCCCC3)CC2)cc1 [compound 77, 4-([1,4′-bipiperidin]-1′-yl)-3-((4-ethylphenyl)sulfonyl)-6-nitroquinoline] | 40 | 80 |  |
| CCCCOc1ccc(S(=O)(=O)c2cnc3ccc(C(=O)N(CC)CC)cc3c2N2CCC(N3CCCCC3)CC2)cc1 [compound 201, 4-([1,4′-bipiperidin]-1′-yl)-3-((4-butoxyphenyl)sulfonyl)-N,N-diethylquinoline-6-carboxamide] | 10 | 30 |  |
| COc1ccc(S(=O)(=O)c2cnc3cc(OC)c(OC)cc3c2-n2cncn2)cc1OC [compound 96, 3-((3,4-dimethoxyphenyl)sulfonyl)-6,7-dimethoxy-4-(1H-1,2,4-triazol-1-yl)quinoline] |  |  | cytotoxicity at 10 µM [1]: 0%; cytotoxicity at 20 µM [2]: 0% |
| CCc1ccc(S(=O)(=O)c2cnc3ccc(OC(F)(F)F)cc3c2N2CCC(N3CCCC3)CC2)cc1 [compound 46, 3-((4-ethylphenyl)sulfonyl)-4-(4-(pyrrolidin-1-yl)piperidin-1-yl)-6-(trifluoromethoxy)quinoline] | 100 | 100 |  |
| CCCCCCCOc1ccc(S(=O)(=O)c2cnc3ccc([S+](C)[O-])cc3c2N2CCCN(CCN3CCCCC3)CC2)cc1 (stereo not drawn) [compound 255, 3-((4-(heptyloxy)phenyl)sulfonyl)-6-(methylsulfinyl)-4-(4-(2-(piperidin-1-yl)ethyl)-1,4-diazepan-1-yl)quinoline] |  |  | cytotoxicity at 10 µM [1]: 0%; cytotoxicity at 20 µM [2]: 10% |
| CCCCCCCOc1ccc(S(=O)(=O)c2cnc3ccc(SC)cc3c2N2CCCN(C)CC2)cc1 [compound 218, 3-((4-(heptyloxy)phenyl)sulfonyl)-4-(4-methyl-1,4-diazepan-1-yl)-6-(methylthio)quinoline] | 90 | 100 |  |
| CCN(CC)c1c(S(=O)(=O)c2ccc(OC)c(OC)c2)cnc2ccc(OC(F)(F)F)cc12 [compound 68, 3-((3,4-dimethoxyphenyl)sulfonyl)-N,N-diethyl-6-(trifluoromethoxy)quinolin-4-amine] | 50 | 80 |  |
| CCCCCCCOc1ccc(S(=O)(=O)c2cnc3ccc([S+](C)[O-])cc3c2N2CCC(N3CCCCC3)CC2)cc1 (stereo not drawn) [compound 221, 4-([1,4′-bipiperidin]-1′-yl)-3-((4-(heptyloxy)phenyl)sulfonyl)-6-(methylsulfinyl)quinoline] | 100 | 100 |  |
| CCc1ccc(S(=O)(=O)c2cnc3ccc(OC(F)(F)F)cc3c2N2CCCC(O)C2)cc1 (stereo not drawn) [compound 82, 1-(3-((4-ethylphenyl)sulfonyl)-6-(trifluoromethoxy)quinolin-4-yl)piperidin-3-ol] | 10 | 60 |  |
| CCOC(=O)c1ccc2ncc(S(=O)(=O)c3ccc(CC)cc3)c(N3CCC(O)CC3)c2c1 [compound 62, ethyl 3-((4-ethylphenyl)sulfonyl)-4-(4-hydroxypiperidin-1-yl)quinoline-6-carboxylate] | 70 | 30 |  |
| O=S(=O)(c1ccc(OC(F)(F)F)cc1)c1cnc2ccc(OC(F)(F)F)cc2c1-n1cncn1 [compound 91, 4-(1H-1,2,4-triazol-1-yl)-6-(trifluoromethoxy)-3-((4-(trifluoromethoxy)phenyl)sulfonyl)quinoline] |  |  | cytotoxicity at 10 µM [1]: 100%; Cell death ([2]; Lung LL2 ex vivo, Conc. 20 μm, drug treatment two days): 80% |
| O=[N+]([O-])c1ccc(S(=O)(=O)c2cnc3ccc(OC(F)(F)F)cc3c2N2CCC(N3CCCCC3)CC2)cc1 [compound 59, 4-([1,4′-bipiperidin]-1′-yl)-3-((4-nitrophenyl)sulfonyl)-6-(trifluoromethoxy)quinoline] | 50 | 40 |  |
| CCc1ccc(S(=O)(=O)c2cnc3ccc(C(=O)O)cc3c2N2CCC(N3CCCCC3)CC2)cc1 [compound 67, 4-([1,4′-bipiperidin]-1′-yl)-3-((4-ethylphenyl)sulfonyl)quinoline-6-carboxylic acid] | 0 | 10 |  |
| CCN(CC)C(=O)c1ccc2ncc(S(=O)(=O)c3ccc(OC)cc3)c(N3CCCN(C)CC3)c2c1 [compound 165, N,N-diethyl-3-((4-methoxyphenyl)sulfonyl)-4-(4-methyl-1,4-diazepan-1-yl)quinoline-6-carboxamide] | 10 | 10 |  |
| COc1ccc(S(=O)(=O)c2cnc3ccc(CC#N)cc3c2NN2CCN(C)CC2)cc1 [compound 99, 2-(3-((4-methoxyphenyl)sulfonyl)-4-((4-methylpiperazin-1-yl)amino)quinolin-6-yl)acetonitrile] | 0 | 10 |  |
| CCCCOc1ccc(S(=O)(=O)c2cnc3ccc(OC(F)(F)F)cc3c2N2CCCN(C)CC2)cc1 [compound 151, 3-((4-butoxyphenyl)sulfonyl)-4-(4-methyl-1,4-diazepan-1-yl)-6-(trifluoromethoxy)quinoline] | 100 | 100 |  |
| CCCCOc1ccc(S(=O)(=O)c2cnc3ccc(OC(F)(F)F)cc3c2-n2cncn2)cc1 [compound 93, 3-((4-butoxyphenyl)sulfonyl)-4-(1H-1,2,4-triazol-1-yl)-6-(trifluoromethoxy)quinoline] |  |  | cytotoxicity at 10 µM [1]: 100%; cytotoxicity at 20 µM [2]: 100% |
| CCCCOc1ccc(S(=O)(=O)c2cnc3ccc([S+](C)[O-])cc3c2N2CCCN(CCN3CCCC3)CC2)cc1 (stereo not drawn) [compound 210, 3-((4-butoxyphenyl)sulfonyl)-6-(methylsulfinyl)-4-(4-(2-(pyrrolidin-1-yl)ethyl)-1,4-diazepan-1-yl)quinoline] | 70 | 50 |  |
| CCCCOc1ccc2ncc(S(=O)(=O)c3ccc(OC)c(OC)c3)c(N3CCC(N4CCCCC4)CC3)c2c1 [compound 116, 4-([1,4′-bipiperidin]-1′-yl)-6-butoxy-3-((3,4-dimethoxyphenyl)sulfonyl)quinoline] |  |  | cytotoxicity at 20 µM [1]: 50%; cytotoxicity at 20 µM [2]: 100% |
